Laboratory results published in patent US8809352B2, “Sulfonamides as inhibitors of Bcl-2 family proteins for the treatments of cancer” (Novartis AG, priority 2009, dated 2014).

Target: BCL2 (Homo sapiens, UniProt P10415)
Assay: Biacore SPR solution inhibition assay of BCL-2 binding to peptide derivatized sensor surfaces
Conditions: SPR competition; 56 nM BCL2 pre-equilibrated with compound one hour; biotinylated BAK, BAD and NOXA peptide surfaces; 25° C.
Description: The present method includes utility of a Surface plasmon resonance (SPR)-based biosensor (Biacore™ GE Healthcare, Uppsala, Sweden) to characterize BCL-2 inhibitors.
Biacore™ utilizes the phenomenon of surface plasmon resonance (SPR) to detect and measure binding interactions. In a typical Biacore experiment, one of the interacting molecules (ligand) is immobilized on a flexible dextran matrix while the interacting partner (analyte) is allowed to flow across that surface. A binding interaction results in an increase in mass on the sensor surface and a corresponding direct change in the refractive index of the medium in the vicinity of the sensor surface. Changes in refractive index or signal are recorded in resonance units (R.U.) Signal changes due to association and dissociation of complexes are monitored in a non-invasive manner, continuously and in real-time, the results of which are reported in the form of a sensorgram. The SPR assay is configured to examine solution inhibition of BCL-2 binding to peptide derivatized sensor surfaces to generate […] values as a measure of inhibitor potency.
Biacore™ A100 (GE Healthcare, Uppsala, Sweden) was used to conduct all experiments reported herein. Sensor surface preparation and all interaction analyses experiments were performed at 25° C. Reagents were purchased from GE Healthcare. Running buffer containing 10 mM Hepes, pH7.4, 150 mM sodium chloride, 1.25 mM Dithiothreitol, 3% Dimethyl sulfoxide and 0.05% polysorbate 20 were utilized throughout all analyses.
Biotinylated BAK, BAD and NOXA peptides were diluted to 10 nM in running buffer and captured onto a sensor surface pre-derivatized with streptavidin (sensor chip SA) to peptide surface densities in the range 50-100 R.U. Peptide captured surfaces were blocked with 500 μM PEO2-Biotin.
Interaction analyses were performed by first equilibrating each sample within a 6 point three fold compound dilution series in the range 16 μM to 0.004 nM with 56 nM BCL2 for one hour during instrument start-up procedures. Protein compound mixtures were then injected over each peptide surface in parallel for 60 seconds at a flow-rate of 30 μL/min. 56 nM BCL2 control samples were also prepared and run at regular intervals during the assay. Surface regeneration was performed at the end of each analysis cycle by two 30 second injections of 10 mM Glycine, pH 2.5, 1M Sodium Chloride, 0.05% polysorbate 20. Samples and control compound samples were run in duplicate and controls are also run at regular intervals during the assay to monitor surface and assay performance.
Data analyses are carried out using Biacore™ A100 evaluation software v1.1 to validate assay quality. Binding level report points were used relative to BCL2 control samples to calculate % inhibition values for each compound protein mixture.

BCL2, sequence (P10415 whole entry): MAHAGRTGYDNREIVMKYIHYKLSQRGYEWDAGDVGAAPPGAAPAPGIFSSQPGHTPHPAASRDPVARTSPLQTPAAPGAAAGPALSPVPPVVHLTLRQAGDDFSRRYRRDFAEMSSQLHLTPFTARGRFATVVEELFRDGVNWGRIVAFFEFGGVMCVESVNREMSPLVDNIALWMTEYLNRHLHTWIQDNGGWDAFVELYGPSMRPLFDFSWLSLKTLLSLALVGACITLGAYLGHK

Row | Structure (SMILES) | IC50 [nM]
1 | CN(C)CC[C@H](CSc1c(Cl)cccc1Cl)Nc1ccc(S(=O)(=O)Nc2ncnc3c2CCN(C2CCN(Cc4ccccc4-c4ccc(Cl)cc4)CC2)C3)cc1S(=O)(=O)C(F)(F)F [Example 38, (R)-N-(7-(1-((4′-chlorobiphenyl-2-yl)methyl)piperidin-4-yl)-5,6,7,8-tetrahydropyrido[3,4-d]pyrimidin-4-yl)-4-(1-(2,6-dichlorophenylthio)-4-(dimethylamino)butan-2-ylamino)-3-(trifluoromethylsulfonyl)benzenesulfonamide] | 41
2 | CCC[C@H](CSc1ccccc1)Nc1ccc(S(=O)(=O)Nc2ncnc3c2CCN(C2CCN(Cc4ccccc4-c4ccc(Cl)cc4)CC2)C3)cc1S(=O)(=O)C(F)(F)F [Example 43, (R)-N-(7-(1-((4′-chlorobiphenyl-2-yl)methyl)piperidin-4-yl)-5,6,7,8-tetrahydropyrido[3,4-d]pyrimidin-4-yl)-4-(1-(phenylthio)pentan-2-ylamino)-3-(trifluoromethylsulfonyl)benzenesulfonamide] | 2420
3 | CN(C)CC[C@H](CSc1ccccc1Cl)Nc1ccc(S(=O)(=O)Nc2ncnc3c2CCN(C2CCN(CC4=C(c5ccc(Cl)cc5)CC(C)(C)CC4)CC2)C3)cc1S(=O)(=O)C(F)(F)F [Example 28, (R)-N-(7-(1((2-(4-chlorophenyl)-4,4-dimethylcyclohex-1-enyl)methyl)piperidin-4-yl)-5,6,7,8-tetrahydropyrido[3,4-d]pyrimidin-4-yl)-4-(1-(2-chlorophenylthio)-4-(dimethylamino)butan-2-ylamino)-3-(trifluoromethylsulfonyl)benzenesulfonamide] | 44
4 | CCN1CCN(CC[C@H](CSc2ccccc2)Nc2ccc(S(=O)(=O)Nc3ncnc4c3CCN(C3CCN(Cc5ccccc5-c5ccc(Cl)cc5)CC3)C4)cc2S(=O)(=O)C(F)(F)F)CC1 [Example 23, N-{7-[1-(4′-Chloro-biphenyl-2-ylmethyl)-piperidin-4-yl]-5,6,7,8-tetrahydro-pyrido[3,4-d]pyrimidin-4-yl}-4[(R)-3-(4-ethyl-piperazin-1-yl)-1-phenylsulfanylmethyl-propylamino]-3-trifluoromethanesulfonyl-benzenesulfonamide] | 51
5 | CN(C)CC[C@H](CSc1ccccc1)Nc1ccc(S(=O)(=O)Nc2ncnc3c2CCN(C2CCN(Cc4ccccc4-c4ccc(Br)cc4)CC2)C3)cc1S(=O)(=O)C(F)(F)F [Example 6, (R)-N-(7-(1-((4′-bromobiphenyl-2-yl)methyl)piperidin-4-yl)-5,6,7,8-tetrahydropyrido[3,4-d]pyrimidin-4-yl)-4-(4-(dimethylamino)-1-(phenylthio)butan-2-ylamino)-3-(trifluoromethylsulfonyl)benzenesulfonamide] | 19
6 | CN(C)CC[C@H](CSc1ccccc1)Nc1ccc(S(=O)(=O)Nc2ncnc3c2CCN(C2CCN(CC4=C(c5ccc(Cl)cc5)CCC(C)(C)C4)CC2)C3)cc1[N+](=O)[O-] [Example 2] | 31
7 | CC1(C)CCC(c2ccc(Cl)cc2)=C(CN2CCC(N3CCc4c(ncnc4NS(=O)(=O)c4ccc(N[C@H](CCN5CCOCC5)CSc5ccccc5)c(S(=O)(=O)C(F)(F)F)c4)C3)CC2)C1 [Example 8] | 76
8 | C[C@H](CSc1ccccc1)Nc1ccc(S(=O)(=O)Nc2ncnc3c2CCN(C2CCN(Cc4ccccc4-c4ccc(Cl)cc4)CC2)C3)cc1S(=O)(=O)C(F)(F)F [Example 44, N-(7-(1((4′-chlorobiphenyl-2-yl)-methyl)piperidin-4-yl)-5,6,7,8-tetrahydropyrido[3,4-d]pyrimidin-4-yl)-4-(1-(phenylthio)propan-2-ylamino)-3-(trifluoromethylsulfonyl)benzenesulfonamide] | 235
9 | CN(C)CC[C@H](CSc1cccc(Cl)c1)Nc1ccc(S(=O)(=O)Nc2ncnc3c2CCN(C2CCN(Cc4ccccc4-c4ccc(Cl)cc4)CC2)C3)cc1S(=O)(=O)C(F)(F)F [Example 26, N-{7-[1-(4′-Chloro-biphenyl-2-ylmethyl)-piperidin-4-yl]-5,6,7,8-tetrahydro-pyrido[3,4-c]pyrimidin-4-yl}-4-[(R)-1-(3-chloro-phenylsulfanylmethyl)-3-dimethylamino-propylamino]-3-trifluoromethanesulfonyl-benzenesulfonamide] | 48

Second part, the compound after the results:

Row | IC50 [nM] | Structure (SMILES)
10 | 405 | O=S(=O)(Nc1nnc2n1CCN(C1CCN(Cc3ccccc3-c3ccc(Cl)cc3)CC1)C2)c1ccc(N[C@H](CCN2CCOCC2)CSc2ccccc2)c(S(=O)(=O)C(F)(F)F)c1 [Example 94]
11 | 36 | CN(C)CC[C@H](CSc1ccccc1)Nc1ccc(S(=O)(=O)Nc2ncnc3c2CCN(C2CCN(Cc4ccccc4-c4ccccc4Cl)CC2)C3)cc1S(=O)(=O)C(F)(F)F [Example 98]
12 | 32 | [2H]C1(N2CCc3c(ncnc3NS(=O)(=O)c3ccc(N[C@H](CCN4CCN(C)CC4)CSc4ccccc4F)c(S(=O)(=O)C(F)(F)F)c3)C2)CCN(Cc2cc(F)ccc2-c2ccc(Cl)cc2)CC1 [Example 87, (R)-N-(7-(1-((4′-chloro-4-fluorobiphenyl-2-yl)methyl)-4-deuteropiperidin-4-yl)-5,6,7,8-tetrahydropyrido[3,4-d]pyrimidin-4-yl)-4-(1-(2-fluorophenylthio)-4-(4-methylpiperazin-1-yl)butan-2-ylamino)-3-(trifluoromethylsulfonyl)benzenesulfonamide]
13 | 66 | CN(C)CC[C@H](CSc1ccccc1)Nc1ccc(S(=O)(=O)Nc2ncnc3c2CCN(C2CCN(Cc4ccccc4-c4ccc(Cl)cc4)CC2)C3)cc1C(F)(F)F [Example 53]
14 | 235 | O=S(=O)(Nc1nc(C(F)(F)F)nc2c1CCN(C1CCN(Cc3ccccc3-c3ccc(Cl)cc3)CC1)C2)c1ccc(N[C@H](CCN2CCOCC2)CSc2ccccc2)c(S(=O)(=O)C(F)(F)F)c1 [Example 68, (R)-N-(7-(1-((4′-chlorobiphenyl-2-yl)methyl)piperidin-4-yl)-2-(trifluoromethyl)-5,6,7,8-tetrahydropyrido[3,4-d]pyrimidin-4-yl)-4-(4-morpholino-1-(phenylthio)butan-2-ylamino)-3-(trifluoromethylsulfonyl)benzenesulfonamide]
15 | 35 | [2H]C1(N2CCc3c(ncnc3NS(=O)(=O)c3ccc(N[C@H](CCN4CCN(CC)CC4)CSc4ccccc4)c(S(=O)(=O)C(F)(F)F)c3)C2)CCN(Cc2cc(F)ccc2-c2ccc(Cl)cc2)CC1 [Example 89, (R)-N-(7-(1-((4′-chloro-4-fluorobiphenyl-2-yl)methyl)-4-deuteropiperidin-4-yl)-5,6,7,8-tetrahydropyrido[3,4-d]pyrimidin-4-yl)-4-(4-(4-ethylpiperazin-1-yl)-1-(phenylthio)butan-2-ylamino)-3-(trifluoromethylsulfonyl)benzenesulfonamide]
16 | 27 | CN1CCN(CC[C@H](CSc2ccccc2F)Nc2ccc(S(=O)(=O)Nc3ncnc4c3CCN(C3CCN(Cc5ccccc5-c5ccc(Cl)cc5)CC3)C4)cc2S(=O)(=O)C(F)(F)F)CC1 [Example 56, (R)-N-(7-(1-((4′-chlorobiphenyl-2-yl)methyl)piperidin-4-yl)-5,6,7,8-tetrahydropyrido[3,4-d]pyrimidin-4-yl)-4-(1-(2-fluorophenylthio)-4-(4-methylpiperazin-1-yl)butan-2-ylamino)-3-(trifluoromethylsulfonyl)benzenesulfonamide]
17 | 312 | [2H]C1(N2CCc3c(ncnc3NS(=O)(=O)c3ccc(N[C@H](CCN4CC5CCC(C4)O5)CSc4ccccc4)c(S(=O)(=O)C(F)(F)F)c3)C2)CCN(CC2=C(c3ccc(Cl)cc3)CC(C)(C)CC2)CC1 [Example 81, 4-((2R)-4-(8-oxa-3-azabicyclo[3.2.1]octan-3-yl)-1-(phenylthio)butan-2-ylamino)-N-(7-(1-((2-(4-chlorophenyl)-4,4-dimethylcyclohex-1-enyl)methyl)-4-deuteropiperidin-4-yl)-5,6,7,8-tetrahydropyrido[3,4-d]pyrimidin-4-yl)-3-(trifluoromethylsulfonyl)-benzenesulfonamide]
18 | 306 | COC1(Cc2ccccc2Br)CCC(N2CCc3c(ncnc3NS(=O)(=O)c3ccc(N[C@H](CCN(C)C)CSc4ccccc4)c(S(=O)(=O)C(F)(F)F)c3)C2)CC1 (stereo partly drawn) [Example 61, (R)-N-(7-(4-(2-bromobenzyl)-4-methoxycyclohexyl)-5,6,7,8-tetrahydropyrido[3,4-d]pyrimidin-4-yl)-4-(4-(dimethylamino)-1-(phenylthio)butan-2-ylamino)-3-(trifluoromethylsulfonyl)benzenesulfonamide]
